Data reported in patent US20020183518A1, “Modulators of proteins with phosphotyrosine recognition units” (ONTOGEN CORPORATION, priority 1995, published 2002).

Experiments:
Type in all cases: biochemical
PTP-1B = target: T1, PTP-1B (Homo sapiens, UniProt P18031); assay: In vitro PTPase inhibition assay (pNPP, colorimetric), PTP-1B; conditions: Table 8; 1 μM compound
T1 construct: known to encode a 321 amino acid fragment containing the PTP-1B catalytic domain and having PTPase activity; made in house; host or cells: E. coli DH5α, plasmid pGEX-3X-PTP-1B
T1 sequence (P18031 3-277 limits assumed): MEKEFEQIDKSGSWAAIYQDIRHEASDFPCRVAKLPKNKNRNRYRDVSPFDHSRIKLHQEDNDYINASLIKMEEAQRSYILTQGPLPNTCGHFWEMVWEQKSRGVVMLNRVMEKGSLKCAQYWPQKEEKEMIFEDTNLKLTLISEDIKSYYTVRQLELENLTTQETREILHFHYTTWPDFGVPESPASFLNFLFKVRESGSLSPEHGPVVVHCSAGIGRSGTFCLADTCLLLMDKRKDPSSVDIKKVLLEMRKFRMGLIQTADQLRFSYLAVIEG
Protocol: PTP-1B enzymatic activity of samples was assayed in microtiter plates as follows. The protein concentration of the PTP-1B enzyme preparation was determined using the Bio-Rad Protein Assay kit (Bio-Rad, Hercules Calif.). […] Reactions were mixed gently and incubated at 37° C. for 60 minutes. Enzymatic cleavage of phosphate from pNPP (a tyrosine phosphate analog) is marked by a colorimetric change in this substrate. See, e.g., Imbert et al., Biochem J., 297:163-173 (1994); Ghosh and Miller, Biochem. Biophys. Res. […] Zanke et al., Eur. J. […] To determine the enzymatic activity, absorbance readings of the reactions were measured at 405 nm using a Molecular Devices Thermomax Plate Reader (Menlo Park Calif.). […] Purified phosphatase was added to the reaction mixtures to begin the reactions; the reactions were incubated at 37° C. for 60 min. […] (for PTP-1C and PTPα assays), stopped, and colorimetrically analyzed as described above. […] First, absorbance readings from the negative control reactions were treated as a baseline and subtracted from the absorbance readings of the experimental reactions. Then, for each reaction, a percent inhibition was calculated using the following formula: […] For each inhibitor compound tested, an IC50 concentration was calculated from a best-fit computer analysis of the calculated percent inhibition for the various dilutions of the compound. PTP-1B enzymatic activity of samples was assayed in microtiter plates as follows. The protein concentration of the PTP-1B enzyme preparation was determined using the Bio-Rad Protein Assay kit (Bio-Rad, Hercules Calif.). […] Reactions were mixed gently and incubated at 37° C. for 60 minutes. Enzymatic cleavage of phosphate from pNPP (a tyrosine phosphate analog) is marked by a colorimetric change in this substrate. See, e.g., Imbert et al., Biochem J., 297:163-173 (1994); Ghosh and Miller, Biochem. Biophys. Res. […] Zanke et al., Eur. […] To determine the enzymatic activity, absorbance readings of the reactions were measured at 405 nm using a Molecular Devices Thermomax Plate Reader (Menlo Park Calif.). […] Purified phosphatase was added to the reaction mixtures to begin the reactions; the reactions were incubated at 37° C. for 60 min. […] (for PTP-1C and PTPα assays), stopped, and calorimetrically analyzed as described above. […] First, absorbance readings from the negative control reactions were treated as a baseline and subtracted from the absorbance readings of the experimental reactions. Then, for each reaction, a percent inhibition was calculated using the following formula: […] For each inhibitor compound tested, an IC50 concentration was calculated from a best-fit computer analysis of the calculated percent inhibition for the various dilutions of the compound.

PTPα = PTPα (Homo sapiens, UniProt P18433); assay: In vitro PTPase inhibition assay (pNPP, colorimetric), PTPα; conditions: Table 8; 100 μM compound
Sequence of PTPα (P18433 20-802): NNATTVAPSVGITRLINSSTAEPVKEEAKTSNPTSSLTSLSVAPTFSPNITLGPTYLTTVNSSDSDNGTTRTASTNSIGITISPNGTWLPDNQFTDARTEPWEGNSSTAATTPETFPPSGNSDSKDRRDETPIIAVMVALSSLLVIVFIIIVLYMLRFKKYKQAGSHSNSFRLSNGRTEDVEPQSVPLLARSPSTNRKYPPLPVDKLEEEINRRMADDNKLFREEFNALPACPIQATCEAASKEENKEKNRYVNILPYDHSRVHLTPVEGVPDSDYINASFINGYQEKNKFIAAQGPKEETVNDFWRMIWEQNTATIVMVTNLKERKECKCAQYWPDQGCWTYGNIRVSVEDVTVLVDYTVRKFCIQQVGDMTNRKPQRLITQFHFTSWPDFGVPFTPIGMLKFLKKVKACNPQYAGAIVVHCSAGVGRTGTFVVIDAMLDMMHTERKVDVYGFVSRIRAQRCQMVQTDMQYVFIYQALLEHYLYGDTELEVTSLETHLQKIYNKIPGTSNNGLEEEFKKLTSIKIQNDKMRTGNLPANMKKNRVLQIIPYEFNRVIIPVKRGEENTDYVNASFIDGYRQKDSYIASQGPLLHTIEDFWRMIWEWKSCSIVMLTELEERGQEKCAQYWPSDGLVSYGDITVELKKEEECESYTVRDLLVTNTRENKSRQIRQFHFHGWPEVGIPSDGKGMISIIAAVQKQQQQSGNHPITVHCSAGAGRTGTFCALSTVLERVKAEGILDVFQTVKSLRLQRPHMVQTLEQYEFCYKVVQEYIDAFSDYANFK
Protocol: (§1) The ability of the compounds of the present invention, such as the cinnamic 4 acid derivative compounds of Example 2, to inhibit the PTPase activity of PTP-1B, CD45, PTP-1C, and PTPα was determined using modifications of the PTP-1B and CD45 activity assays described in Examples 3 and 4.
(§2) First, 0.001 mmol of the cinnamic acid derivative (or other PTPase inhibitor compound) was dissolved in 100 ul of DMSO to create a 10 mM stock solution. The 10 mM stock solution was used to add varying concentrations (100 uM, 133 uM, 10 uM, 3 uM, 1 uM, 0.3 uM, 0.1 uM, 0.03 uM, 0.01 uM or 0.003 uM) of the inhibitor compound to a series of otherwise identical PTPase activity assay reactions (100 ul final volume in microtiter wells). Thus, each 100 ul reaction contained 10 ul PTPase enzyme stock solution (final phosphatase concentration of approximately 20 ng/well), 70 ul activity assay buffer, 10 ul pNPP stock solution (final pNPP concentration of 0.9 mM for PTP-1B assay, 0.93 mM for CD45 assay, 0.5 mM for PTPα assay, and 8 mM for PTP-1C assay), and 10 ul of the diluted inhibitor compound in DMSO. Assay buffers contained: for CD45 and PTP-1B assays, 100 mM sodium acetate at pH 6.0, 1 mM EDTA, 0.1% Triton X-100, and 15 mM bME; for PTP-1C assays, 100 mM sodium acetate at pH 5.5, 0.1% BSA, and 15 mM bME; for PTPα assays, 100 mM sodium acetate at pH 5.25, 0.1% BSA, and 15 mM bME. Purified phosphatase was added to the reaction mixtures to begin the reactions; the reactions were incubated at 37° C. for 60 min. (for PTP-1B and CD45 assays) or at 27° C. for 60 min. (for PTP-1C and PTPα assays), stopped, and colorimetrically analyzed as described above. As positive and negative controls, reactions were performed containing 10 ul DMSO with no inhibitor compound or containing the known PTPase inhibitors vanadate (final concentration 0.5 mM; for PTP-1B and CD45 assays) or ammonium molybdate (final concentration 1 mM; for PTP-1C and PTPα assays) substituted for the inhibitor compound of the invention.
(§3) The concentration of inhibitor compound required to inhibit 50% of the PTPase activity (IC50) was determined as follows. First, absorbance readings from the negative control reactions were treated as a baseline and subtracted from the absorbance readings of the experimental reactions. Then, for each reaction, a percent inhibition was calculated using the following formula: […]
(§4) The ability of the compounds of the present invention, such as the cinnamic acid derivative compounds of Example 2, to inhibit the PTPase activity of PTP-1B, CD45, PTP-1C, and PTPα was determined using modifications of the PTP-1B and CD45 activity assays described in Examples 3 and 4.
as §2, with “uM, 33” for “uM, 133”, “EDTA, 0. 1%” for “EDTA, 0.1%”, “at 27 C” for “at 27° C.”, “min.” for “min. (for PTP-1C and PTPα assays), stopped, and colorimetrically analyzed as described above. As positive and negative controls, reactions were performed containing 10 ul DMSO with no inhibitor compound or containing the known PTPase inhibitors vanadate (final concentration 0.5 mM; for PTP-1B and CD45 assays) or ammonium molybdate (final concentration 1 mM; for PTP-1C and PTPα assays) substituted for the inhibitor compound of the invention.”

PTP-1C = PTP-1C (Homo sapiens, UniProt P29350); assay: In vitro PTPase inhibition assay (pNPP, colorimetric), PTP-1C; conditions: Table 8; 100 μM compound
Sequence of PTP-1C (P29350 whole entry, species assumed): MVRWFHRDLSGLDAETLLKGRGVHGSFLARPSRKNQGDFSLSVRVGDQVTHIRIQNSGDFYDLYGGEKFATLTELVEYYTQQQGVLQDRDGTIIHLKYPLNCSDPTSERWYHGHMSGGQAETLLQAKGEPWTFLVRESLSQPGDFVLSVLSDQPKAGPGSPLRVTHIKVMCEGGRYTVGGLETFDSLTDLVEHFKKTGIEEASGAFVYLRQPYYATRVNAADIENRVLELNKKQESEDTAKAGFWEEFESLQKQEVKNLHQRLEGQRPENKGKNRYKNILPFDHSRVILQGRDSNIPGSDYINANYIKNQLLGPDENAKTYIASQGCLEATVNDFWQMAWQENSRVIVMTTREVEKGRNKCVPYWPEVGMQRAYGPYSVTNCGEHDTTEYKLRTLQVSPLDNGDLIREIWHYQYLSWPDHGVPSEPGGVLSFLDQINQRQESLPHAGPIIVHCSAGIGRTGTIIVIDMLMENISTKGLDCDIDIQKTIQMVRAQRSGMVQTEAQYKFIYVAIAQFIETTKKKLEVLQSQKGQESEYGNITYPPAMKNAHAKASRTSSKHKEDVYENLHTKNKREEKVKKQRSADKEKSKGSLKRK
Protocol: as §1, §2, §3, §4
as §2, with “uM, 33” for “uM, 133”, “EDTA, 0. 1%” for “EDTA, 0.1%”, “at 27 C” for “at 27° C.”, “min.” for “min. (for PTP-1C and PTPα assays), stopped, and colorimetrically analyzed as described above. As positive and negative controls, reactions were performed containing 10 ul DMSO with no inhibitor compound or containing the known PTPase inhibitors vanadate (final concentration 0.5 mM; for PTP-1B and CD45 assays) or ammonium molybdate (final concentration 1 mM; for PTP-1C and PTPα assays) substituted for the inhibitor compound of the invention.”

| Compound | % inhibition of PTP1B at 1 μM (PTP-1B) [%] | % inhibition of PTPα at 100 μM (PTPα) [%] | % inhibition of PTP1C at 100 μM (PTP-1C) [%] |
| --- | --- | --- | --- |
| O=C(O)/C=C/c1ccc(C(=O)OC(C(=O)NCCC(=O)O)c2ccc(Br)cc2)cc1 (racemic) [Compound 36] | 52 | 0 | 42 |
| O=C(O)/C=C/c1ccc(C(=O)OC(C(=O)NCCCCCC(=O)O)c2ccc(Br)cc2)cc1 (racemic) [Compound 37] | 85 | 63 | 59 |
| CCCCCCC(OC(=O)c1ccc(/C=C/C(=O)O)cc1)C(=O)NCCC(=O)O (racemic) [Compound 38] | 93 | 71 | 63 |
| CCCCCCC(OC(=O)c1ccc(/C=C/C(=O)O)cc1)C(=O)NCCCCCC(=O)O (racemic) [Compound 39] | 82 | 47 | 53 |
| CCCCCCCCCC(OC(=O)c1ccc(/C=C/C(=O)O)cc1)C(=O)NCCC(=O)O (racemic) [Compound 40] | 88 | 82 | 62 |
| CCCCCCCCCC(OC(=O)c1ccc(/C=C/C(=O)O)cc1)C(=O)NCCCCCC(=O)O (racemic) [Compound 41] | 39 | 20 | 17 |
| COc1ccc(C(=O)OC(C(=O)NCCC(=O)O)c2ccc(/C=C/C(=O)O)cc2)cc1 (racemic) [Compound 42] | 84 | 92 | 88 |
| COc1ccc(C(=O)OC(C(=O)NCCCCCC(=O)O)c2ccc(/C=C/C(=O)O)cc2)cc1 (racemic) [Compound 43] | 76 | 82 | 79 |
| O=C(O)/C=C/c1ccc(C(OC(=O)c2ccc([N+](=O)[O-])cc2)C(=O)NCCC(=O)O)cc1 (racemic) [Compound 44] | 79 | 87 | 86 |
| O=C(O)/C=C/c1ccc(C(OC(=O)/C=C/c2ccc(F)cc2)C(=O)NCCC(=O)O)cc1 (racemic) [Compound 45] | 85 | 85 | 84 |
| O=C(O)/C=C/c1ccc(C(OC(=O)/C=C/c2ccc(F)cc2)C(=O)NCCCCCC(=O)O)cc1 (racemic) [Compound 46] | 75 | 73 | 61 |
| CCCC(CCC)C(=O)OC(C(=O)NCCC(=O)O)c1ccc(/C=C/C(=O)O)cc1 (racemic) [Compound 47] | 68 | 48 | 63 |
| CCCC(CCC)C(=O)OC(C(=O)NCCCCCC(=O)O)c1ccc(/C=C/C(=O)O)cc1 (racemic) [Compound 48] | 69 | 3 | 33 |
| O=C(O)/C=C/c1ccc(C(OC(=O)CCC2CCCC2)C(=O)NCCC(=O)O)cc1 (racemic) [Compound 49] | 37 | 0 | 35 |
| O=C(O)/C=C/c1ccc(C(OC(=O)CCC2CCCC2)C(=O)NCCCCCC(=O)O)cc1 (racemic) [Compound 50] | 50 | 37 | 25 |
